Our source for the flash point values is a flash point compilation (Sun et al. 2020).

SMILES strings stand for the structures.

Assay in series [1]: not given
The source holds these as a separate data set.

As for `Cc1ccc(C)c(C)c1` [1,2,4-TRIMETHYL BENZENE], the flash point is 45.5 °C.

For the molecule `CCc1ccccc1CC` [1,2-Diethylbenzene], the flash point turned out to be 57.2 °C.

As for `COCCOC` [1,2-Dimethoxyethane], the flash point was -1.6 °C.

Regarding `NCCN` [1,2-Ethanediamine], the flash point came out at 38 °C.

`Cc1cccc(C)c1` [1,3-Dimethylbenzene] yielded a flash point of 25.0 °C.

On to `CCc1ccc(CC)cc1` [1,4-Diethylbenzene], for which the flash point is 57 °C.

In turn, `Cc1ccc(C)cc1` [1,4-Dimethylbenzene] registered a flash point of 26 °C.

`NCCCCCCN` [1,6-Hexanediamine] had a flash point of 81.0 °C.

Turning to `CCC(C)CO` (configuration not stated) [1-Butanol, 2-methyl-], the flash point came to 43.0 °C.

For `C=CC(C)(C)C` [1-Butene, 3,3-dimethyl-], the flash point is -31.9 °C.

For the molecule `C[Si](C)(C)[Si](C)(C)C` [Hexamethyldisilane], in series [1], the flash point is -1.00 °C.

`C[Si](C)(C)N[Si](C)(C)C` [Hexamethyldisilazane] registered a flash point in series [1] of 8.00 °C.

`CCCCCC[Si](OC)(OC)OC` [Hexyltrimethoxysilane] gave a flash point in series [1] of 62.00 °C.

As to `CC(C)C[Si](Cl)(Cl)Cl` [Isobutyltrichlorosilane], the flash point in series [1] came to 37.00 °C.

Turning to `CO[Si](C)(OC)c1ccccc1` [Methyl phenyldimethoxysilane], in series [1], the flash point came out at 76.00 °C.

On to `C[Si](Cl)(c1ccccc1)c1ccccc1` [Methyldiphenylchlorosilane], for which the flash point in series [1] came out at 138.00 °C.

In series [1], `CCO[Si](C)(OCC)OCC` [Methyltriethoxysilane] registered a flash point of 24.00 °C.

In turn, `CO[Si](C)(OC)OC` [Methyltrimethoxysilane] had a flash point in series [1] of 11.00 °C.

In series [1], `C[Si](C)(C)O[Si](C)(C)O[Si](C)(C)C` [Octamethyltrisiloxane] registered a flash point of 30.00 °C.

As to `C[SiH](C)O[Si](C)(C)C` [Pentamethyldisiloxane], in series [1], the flash point was -19.00 °C.

As to `F[Si](F)(F)c1ccccc1` [Phenyl trifluorosilane], in series [1], the flash point was -5.00 °C.

Turning to `C[Si](C)(Cl)c1ccccc1` [Phenyldimethylchlorosilane], the flash point in series [1] came to 61.00 °C.

The molecule `[SiH3]c1ccccc1` [Phenylsilane] showed a flash point in series [1] of 8.00 °C.

For `Cl[Si](Cl)(Cl)c1ccccc1` [Phenyltrichlorosilane], the flash point in series [1] worked out at 91.00 °C.

Consider `CCO[Si](OCC)(OCC)c1ccccc1` [Phenyltriethoxysilane], for which the flash point in series [1] was found to be 120.00 °C.

Take `C#CCO[Si](C)(C)C` [Propargyloxytrimethylsilane]: in series [1], the flash point worked out at 27.00 °C.

For the molecule `CCC[Si](O[SiH](C)C)(O[SiH](C)C)O[SiH](C)C` [Propyltris(dimethylsiloxy)silane], the flash point in series [1] was 50.00 °C.

The molecule `CCCO[Si](OCCC)(OCCC)OCCC` [Tetra-n-propoxysilane] returned a flash point in series [1] of 95.00 °C.

`C[Si](C)(C)O[Si](C)(C)O[Si](C)(C)O[Si](C)(C)O[Si](C)(C)O[Si](C)(C)C` [Tetradecamethylhexasiloxane] returned a flash point in series [1] of 102.00 °C.

`CO[Si](OC)(OC)OC` [Tetramethoxysilane] returned a flash point in series [1] of 21.00 °C.

For `C[Si](C)(C)C` [Tetramethylsilane], the flash point in series [1] is -28.00 °C.

`Cl[Si](Cl)(Cl)CCc1ccccc1` [Trichloro(2-phenylethyl)silane]: in series [1], the flash point came out at 91.00 °C.

Molecule `FC(F)(F)CC[Si](Cl)(Cl)Cl` [Trichloro(3,3,3-trifluoropropyl)silane] returned a flash point in series [1] of 15.00 °C.

In series [1], `ClC[Si](Cl)(Cl)Cl` [Trichloro(Chloromethyl) silane] had a flash point of 69.00 °C.

Molecule `Clc1cccc([Si](Cl)(Cl)Cl)c1Cl` [Trichloro(dichlorophenyl)silane] registered a flash point in series [1] of 146.00 °C.

Take `CC(C)[SiH](C(C)C)C(C)C` [Triisopropylsilane]: in series [1], the flash point came to 37.00 °C.

With `CO[SiH](OC)OC` [Trimethoxysilane], the flash point in series [1] was -9.00 °C.

Turning to `C[Si](C)(C)Br` [Trimethyl bromosilane], in series [1], the flash point was -3.00 °C.

With `CCCO[Si](C)(C)C` [Trimethyl-n-propoxysilane], in series [1], the flash point was determined as 10.00 °C.

As for `C[Si](C)(C)F` [Trimethylfluorosilane], in series [1], the flash point was -35.00 °C.

`C[Si](C)(C)N=C=S` [Trimethylsilylisothiocyanate] came in with a flash point in series [1] of 35.00 °C.

Molecule `CN(C)[SiH](N(C)C)N(C)C` [Tris(dimethylamino)silane] registered a flash point in series [1] of 25.00 °C.

Consider `C[Si](C)(C)O[SiH](O[Si](C)(C)C)O[Si](C)(C)C` [Tris(trimethylsiloxy)silane], for which the flash point in series [1] turned out to be 50.00 °C.

The molecule `C=C[Si](C)(CC)CC` [Vinyldiethylmethylsilane] had a flash point in series [1] of 15.00 °C.

In turn, `C=C[Si](OC(C)=O)(OC(C)=O)OC(C)=O` [Vinyltriacetoxysilane] showed a flash point in series [1] of 88.00 °C.

As to `C=C[Si](OCC)(OCC)OCC` [Vinyltriethoxysilane], the flash point in series [1] came out at 34.00 °C.

In series [1], `C=C[Si](OCCOC)(OCCOC)OCCOC` [Vinyltris(methoxyethoxy)silane] showed a flash point of 80.00 °C.

As to `C[Si](C)(C)CCOCCl` [[2-(chloromethoxy)ethyl]trimethylsilane], the flash point in series [1] was found to be 46.00 °C.

Regarding `CCO[Si](CCCS)(OCC)OCC` [[3-(mercapto)propyl]triethoxysilane], the flash point in series [1] came to 87.78 °C.

As for `CCCC[Si](Cl)(Cl)Cl` [n-Butyltrichlorosilane], the flash point in series [1] was found to be 54.00 °C.

`CCCCCCCCCC[Si](C)(Cl)Cl` [n-Decylmethyldichlorosilane] registered a flash point in series [1] of 120.00 °C.

Molecule `CCCCCCCCCCCC[Si](Cl)(Cl)Cl` [n-Dodecyltrichlorosilane] gave a flash point in series [1] of 162.00 °C.

On to `CCCCCCCC[Si](C)(C)Cl` [n-Octyldimethylchlorosilane], for which, in series [1], the flash point is 97.00 °C.

For `CCCCCCCC[Si](Cl)(Cl)Cl` [n-Octyltrichlorosilane], in series [1], the flash point was 96.00 °C.

`CCC[Si](C)(Cl)Cl` [n-Propylmethyldichlorosilane]: the flash point in series [1] was 27.00 °C.

In series [1], `CCC[Si](OC)(OC)OC` [n-Propyltrimethoxysilane] had a flash point of 25.00 °C.

For `C[Si](C)(C)c1ccc(Cl)cc1` [p-Chlorophenyltrimethylsilane], the flash point in series [1] came out at 49.00 °C.

As to `CCCC(C)[Si](Cl)(Cl)Cl` (configuration not stated) [sec-Amyltrichlorosilane], the flash point in series [1] is 30.00 °C.

The molecule `CC(C)(C)O[Si](C)(C)C` [t-Butoxytrimethylsilane] displayed a flash point in series [1] of 14.00 °C.

`CC(C)(C)[Si](C)(C)Cl` [t-Butyldimethylchlorosilane]: the flash point in series [1] is 22.00 °C.

Molecule `CC(C)(C)[Si](C)(C)O` [t-Butyldimethylsilanol] yielded a flash point in series [1] of 45.00 °C.

As for `CC(C)(C)[Si](Cl)(Cl)Cl` [t-Butyltrichlorosilane], the flash point in series [1] turned out to be 21.00 °C.
